Test results as given in patent US9358290B2, “Pharmaceutical formulations” (MOREX DEVELOPMENT PARTNERS LLP, priority 2012, dated 2016).
Several values for one entry are separate records, joined by “and”; a condition that tells them apart may be missing. Equal entries are not always repeated. Marks after values point to notes of the source that are not given here.

Tests used:
Format in all cases: physicochemical
[1] = Initial solubility screening in water-miscible solvents (filtrate assayed by UV absorbance at 420.6 nm)
Description: (§1) Initial solubility screening tests were therefore carried out to determine the solubility of MTL-005 in various water-miscible solvents. The screening tests were carried out by dissolving the MTL-005 in the test solvent, filtering the resulting solution to remove any undissolved materials and assaying the filtrate by measuring the UV absorbance at 420.6 nm.

[2] = Solubility in mixtures of DMA and water
Description: as §1
In order to assess the suitability of DMA solutions of MTL-005 for administration by aqueous infusion, the solubility of MTL-005 in mixtures of DMA and water was assessed using the assay method described above.

[3] = Solubility in DMA/co-solvent mixtures
Description: as §1
According to the invention, water-miscible co-solvents are added to the DMA in order to improve the solubility of the MTL-005 when the formulation is diluted with water. Tests were therefore carried out to determine the solubility of MTL-005 in various DMA/co-solvent mixtures using the methods described above.
In the first series of tests, approximately 50 mg/ml MTL-005 was added to a range of cosolvent vehicles. A solubility in the region of 50 mg/ml was obtained for a range of vehicles (see results in column 1 in Table 3 below), therefore it could not be confirmed that saturated solutions were obtained. The work was therefore repeated at a higher MTL-005 loading of 150 mg/ml (see results in column 2 of Table 3).

Stability studies = assay: Stability studies

Copper meso-5,15-bis[3-[(1,2-dicarba-closo-dodecaboranyl)-methoxy]-phenyl]-meso-10,20-dinitroporphyrin [MTL-005]
Total MTL-005 dissolved ([1]; solvent: Absolute ethanol): 0.089 mg/mL
Total MTL-005 dissolved ([1]; solvent: Benzyl alcohol): 0.91 mg/mL
Total MTL-005 dissolved ([1]; solvent: Cremophor EL 5% aq): 0.24 mg/mL
Total MTL-005 dissolved ([1]; solvent: Cremophor EL 10% aq): 0.27 mg/mL
Total MTL-005 dissolved ([1]; solvent: Cremophor EL 10% aq(heated)): 1.65 mg/mL
Total MTL-005 dissolved ([1]; solvent: DMA 10% w/v aq): 0.13 mg/mL
Total MTL-005 dissolved ([1]; solvent: DMA 10%, Cremophor EL 5% aq): 0.30 mg/mL
Total MTL-005 dissolved ([1]; solvent: DMA diluted 1 in 10 with Solutol HS15 20% w/v aq): 1.44 mg/mL
Total MTL-005 dissolved ([1]; solvent: Deionised water): 0.001 mg/mL
Total MTL-005 dissolved ([1]; solvent: Glycofurol): 8.68 mg/mL
Total MTL-005 dissolved ([1]; solvent: Macrogol 300): 2.60 mg/mL
Total MTL-005 dissolved ([1]; solvent: N,N-Dimethylacetamide (DMA), result close to concentration in sample, solubility may be greater): 74.08* mg/ml
Total MTL-005 dissolved ([1]; solvent: Polysorbate 20 (5% w/v aq)): 0.27 mg/mL
Total MTL-005 dissolved ([1]; solvent: Polysorbate 20 (10% w/v aq)): 0.13 mg/mL
Total MTL-005 dissolved ([1]; solvent: Polysorbate 20 (20% w/v aq)): 0.13 mg/mL
Total MTL-005 dissolved ([1]; solvent: Polysorbate 20, result close to concentration in sample, solubility may be greater): 5.88* mg/ml
Total MTL-005 dissolved ([1]; solvent: Polysorbate 80 5%, Cremophor EL 5% aq): 0.28 mg/mL
Total MTL-005 dissolved ([1]; solvent: Polysorbate 80 5%, DMA 10% aq): 0.45 mg/mL
Total MTL-005 dissolved ([1]; solvent: Polysorbate 80 5%, DMA 10%, Cremophor EL 5% aq): 0.35 mg/mL
Total MTL-005 dissolved ([1]; solvent: Polysorbate 80 (5% w/v aq)): 0.15 mg/mL and 0.22 mg/mL
Total MTL-005 dissolved ([1]; solvent: Polysorbate 80 (10% w/v aq)): 0.25 mg/mL
Total MTL-005 dissolved ([1]; solvent: Polysorbate 80 (20% w/v aq)): 0.38 mg/mL
Total MTL-005 dissolved ([1]; solvent: Propylene glycol): 0.019 mg/mL
Total MTL-005 dissolved ([1]; solvent: Solutol HS15): 11.50 mg/mL
Total MTL-005 dissolved ([1]; solvent: Solutol HS15 (5% w/v aq)): 0.08 mg/mL
Total MTL-005 dissolved ([1]; solvent: Solutol HS15 (10% w/v aq)): 0.10 mg/mL
Total MTL-005 dissolved ([1]; solvent: Solutol HS15 (20% w/v aq)): 0.16 mg/mL
Total MTL-005 dissolved ([1]; solvent: Soyabean oil): 0.59 mg/mL
Total MTL-005 dissolved ([1]; solvent: pH 7 Britton Robinson buffer): 0.0016 mg/mL
Solubility ([2]; vehicle: 20% DMA/80% Water, 5 mg/ml added): <50 µg/mL
Solubility ([2]; vehicle: 40% DMA/60% Water, 5 mg/ml added): <50 µg/mL
Solubility ([2]; vehicle: 60% DMA/40% Water, 20 mg/ml added): <50 µg/mL
Solubility ([2]; vehicle: 80% DMA/20% Water, 18 mg/ml added): <50 µg/mL
Solubility ([2]; vehicle: 100% DMA, 92.5 mg/ml added): >90000 µg/mL
Total MTL-005 dissolved (50 mg/ml added) ([3]; DMA 60%, Macrogol 300 40%): 34 mg/mL
Total MTL-005 dissolved (50 mg/ml added) ([3]; DMA 60%, Propylene Glycol 40%): 4 mg/mL
Total MTL-005 dissolved (50 mg/ml added) ([3]; DMA 60%, Solutol HS 40%, may not be saturated): 51 mg/mL
Total MTL-005 dissolved (150 mg/ml added) ([3]; DMA 60%, Solutol HS 40%): 58 mg/mL
Total MTL-005 dissolved (50 mg/ml added) ([3]; DMA 60%, Tetraglycol 40%, may not be saturated): 53 mg/mL
Total MTL-005 dissolved (150 mg/ml added) ([3]; DMA 60%, Tetraglycol 40%): 94 mg/mL
Total MTL-005 dissolved (50 mg/ml added) ([3]; DMA 60%, Tween 20 40%, may not be saturated): 47 mg/mL
Total MTL-005 dissolved (150 mg/ml added) ([3]; DMA 60%, Tween 20 40%): 37 mg/mL
Total MTL-005 dissolved (150 mg/ml added) ([3]; DMA 70%, Solutol HS 20%, Macrogol 300 10%): 74 mg/mL
Total MTL-005 dissolved (150 mg/ml added) ([3]; DMA 70%, Solutol HS 30%): 70 mg/mL
Total MTL-005 dissolved (50 mg/ml added) ([3]; DMA 80%, Macrogol 300 10%, Propylene Glycol 10%, may not be saturated): 48 mg/mL
Total MTL-005 dissolved (50 mg/ml added) ([3]; DMA 80%, Macrogol 300 10%, Tetraglycol 10%, may not be saturated): 49 mg/mL
Total MTL-005 dissolved (50 mg/ml added) ([3]; DMA 80%, Macrogol 300 20%, may not be saturated): 50 mg/mL
Total MTL-005 dissolved (150 mg/ml added) ([3]; DMA 80%, Macrogol 300 20%): 76 mg/mL
Total MTL-005 dissolved (50 mg/ml added) ([3]; DMA 80%, Propylene Glycol 20%): 27 mg/mL
Total MTL-005 dissolved (50 mg/ml added) ([3]; DMA 80%, Solutol HS 10%, Macrogol 300 10%, may not be saturated): 49 mg/mL
Total MTL-005 dissolved (150 mg/ml added) ([3]; DMA 80%, Solutol HS 10%, Macrogol 300 10%): 95 mg/mL
Total MTL-005 dissolved (50 mg/ml added) ([3]; DMA 80%, Solutol HS 10%, Propylene Glycol 10%, may not be saturated): 50 mg/mL
Total MTL-005 dissolved (150 mg/ml added) ([3]; DMA 80%, Solutol HS 10%, Propylene Glycol 10%): 58 mg/mL
Total MTL-005 dissolved (50 mg/ml added) ([3]; DMA 80%, Solutol HS 10%, Tetraglycol 10%, may not be saturated): 49 mg/mL
Total MTL-005 dissolved (150 mg/ml added) ([3]; DMA 80%, Solutol HS 10%, Tetraglycol 10%): 113 mg/mL
Total MTL-005 dissolved (50 mg/ml added) ([3]; DMA 80%, Solutol HS 20%, may not be saturated): 49 mg/mL
Total MTL-005 dissolved (150 mg/ml added) ([3]; DMA 80%, Solutol HS 20%): 115 mg/mL
Total MTL-005 dissolved (50 mg/ml added) ([3]; DMA 80%, Tetraglycol 10%, Propylene Glycol 10%, may not be saturated): 50 mg/mL
Total MTL-005 dissolved (50 mg/ml added) ([3]; DMA 80%, Tetraglycol 20%, may not be saturated): 52 mg/mL
Total MTL-005 dissolved (150 mg/ml added) ([3]; DMA 80%, Tetraglycol 20%): 131 mg/mL
Total MTL-005 dissolved (50 mg/ml added) ([3]; DMA 80%, Tween 20 10%, Macrogol 300 10%, may not be saturated): 50 mg/mL
Total MTL-005 dissolved (150 mg/ml added) ([3]; DMA 80%, Tween 20 10%, Macrogol 300 10%): 83 mg/mL
Total MTL-005 dissolved (50 mg/ml added) ([3]; DMA 80%, Tween 20 10%, Propylene Glycol 10%, may not be saturated): 49 mg/mL
Total MTL-005 dissolved (150 mg/ml added) ([3]; DMA 80%, Tween 20 10%, Propylene Glycol 10%): 79 mg/mL
Total MTL-005 dissolved (50 mg/ml added) ([3]; DMA 80%, Tween 20 10%, Solutol HS 10%, may not be saturated): 52 mg/mL
Total MTL-005 dissolved (50 mg/ml added) ([3]; DMA 80%, Tween 20 10%, Tetraglycol 10%, may not be saturated): 48 mg/mL
Total MTL-005 dissolved (150 mg/ml added) ([3]; DMA 80%, Tween 20 10%, Tetraglycol 10%): 101 mg/mL
Total MTL-005 dissolved (50 mg/ml added) ([3]; DMA 80%, Tween 20 20%, may not be saturated): 51 mg/mL
Total MTL-005 dissolved (150 mg/ml added) ([3]; DMA 80%, Tween 20 20%): 91 mg/mL
Stability as a dry powder (Stability studies; dry powder): relatively stable as a dry powder
Stability in solution (Stability studies; in solution): not stable for extended periods in solution
